Experimental data published in US11279687B2, “Compounds and compositions for the inhibition of NAMPT” (Valo Health, Inc., priority 2010, dated 2022).
pIC50: −log10 of the molar value. Read-outs that look alike come from different tables or passages of the source.

Columns and labels:
NAMPT = NAMPT (Homo sapiens (Human), UniProt P43490); experiment: NAMPT biochemical inhibition assay (NMN quantified by mass spectrometry); details: NAMPT biochemical inhibition; read-out: Biochem IC50
A2780 cells = experiment: In-vitro cell proliferation assay (SRB), A2780 cells; assay type: cell-based; details: read-out: A2780 IC50;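 also: viable cell number read as SRB absorbance, background from media-only wells subtracted, IC50 interpolated from percent inhibition at two bracketing compound concentrations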
[1] = Homo sapiens, A2780, 72 h, A2780 cells, 72 hours, SRB

Chain of NAMPT (P43490 whole entry): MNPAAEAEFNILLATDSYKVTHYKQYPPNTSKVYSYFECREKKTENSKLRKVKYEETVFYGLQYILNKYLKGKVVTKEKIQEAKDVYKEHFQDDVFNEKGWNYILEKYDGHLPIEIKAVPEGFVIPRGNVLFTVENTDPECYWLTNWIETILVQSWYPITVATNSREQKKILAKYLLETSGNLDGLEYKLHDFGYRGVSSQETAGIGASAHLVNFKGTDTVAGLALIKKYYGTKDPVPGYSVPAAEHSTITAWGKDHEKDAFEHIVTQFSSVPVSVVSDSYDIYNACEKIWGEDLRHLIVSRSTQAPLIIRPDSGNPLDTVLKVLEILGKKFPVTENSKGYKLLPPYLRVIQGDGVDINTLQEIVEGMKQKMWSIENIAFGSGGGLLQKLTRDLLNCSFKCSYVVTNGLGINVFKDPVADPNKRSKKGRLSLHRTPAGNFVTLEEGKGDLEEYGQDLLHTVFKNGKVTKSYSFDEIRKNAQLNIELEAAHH

`O=C(NCc1cccnc1)Nc1ccc(S(=O)(=O)c2ccc3c(c2)OCO3)cc1` [1-[4-(2H-1,3-benzodioxole-5-sulfonyl)phenyl]-3-(pyridin-3-ylmethyl)urea] showed a pIC50 (NAMPT) of 9.00 and a pIC50 (A2780 cells; [1]) of 6.49.
With `O=C(NCc1cccnc1)Nc1ccc(S(=O)(=O)N2CCOc3ccccc32)cc1` [1-[4-(3,4-dihydro-2H-1,4-benzoxazine-4-sulfonyl)phenyl]-3-(pyridin-3-ylmethyl)urea] the pIC50 (NAMPT) was 8.00 and the pIC50 (A2780 cells; [1]) was 6.34.
For `CC1CC(C)CN(S(=O)(=O)c2ccc(NC(=O)NCc3cccnc3)cc2)C1` (stereo not drawn) [1-[4-(3,5-dimethylpiperidine-1-sulfonyl)phenyl]-3-(pyridin-3-ylmethyl)urea], the pIC50 (NAMPT) was 8.22 and the pIC50 (A2780 cells; [1]) was 7.85.
Work on `O=C(NCc1cccnc1)Nc1ccc(S(=O)(=O)N2CCC(F)(F)CC2)cc1` [1-[4-(4,4-difluoropiperidine-1-sulfonyl)phenyl]-3-(pyridin-3-ylmethyl)urea] yielded a pIC50 (NAMPT) of 7.60 and a pIC50 (A2780 cells; [1]) of 6.52.
Compound `O=C(NCc1cccnc1)Nc1ccc(S(=O)(=O)N2CCCN(Cc3ccccc3)CC2)cc1` [1-[4-(4-benzyl-1,4-diazepane-1-sulfonyl)phenyl]-3-(pyridin-3-ylmethyl)urea] has a pIC50 (NAMPT) of 8.30 and a pIC50 (A2780 cells; [1]) of 6.86.
With `O=C(NCc1cccnc1)Nc1ccc(S(=O)(=O)N2CCN(C(=O)[C@H]3CCCO3)CC2)cc1` [1-[4-(4-{[(2R)-oxolan-2-yl]carbonyl[piperazine-1-sulfonyl)phenyl]-3-(pyridin-3-ylmethyl)urea] the pIC50 (NAMPT) was 8.10 and the pIC50 (A2780 cells; A2780 cells, 72 hours, SRB) was 7.52.
With `O=C(NCc1cc2ccncc2s1)Nc1ccc(S(=O)(=O)c2ccccc2)cc1` [1-[4-(benzenesulfonyl)phenyl]-3-{thieno[2,3-c]pyridin-2-ylmethyl}urea] the pIC50 (NAMPT) was 6.34 and the pIC50 (A2780 cells; [1]) was under 4.52.
With `O=C(NCc1cccnc1)Nc1ccc(S(=O)(=O)NC2CCCCCC2)cc1` [1-[4-(cycloheptylsulfamoyl)phenyl]-3-(pyridin-3-ylmethyl)urea] the pIC50 (NAMPT) was 8.52 and the pIC50 (A2780 cells; [1]) was 7.10.
`O=C(NCc1cccnc1)Nc1ccc(S(=O)(=O)NC2CCCCC2)cc1` [1-[4-(cyclohexylsulfamoyl)phenyl]-3-(pyridin-3-ylmethyl)urea] was tested, and the pIC50 (NAMPT) was 9.00 and the pIC50 (A2780 cells; [1]) was 6.69.
Compound `O=C(NCc1cccnc1)Nc1ccc(S(=O)(=O)C2CCCC2)cc1` [1-[4-(cyclopentanesulfonyl)phenyl]-3-(pyridin-3-ylmethyl)urea] has a pIC50 (NAMPT) of 7.37 and a pIC50 (A2780 cells; [1]) of 5.73.
Work on `O=C(NCc1cccnc1)Nc1ccc(S(=O)(=O)N2CCCC3CCCCC32)cc1` (stereo not drawn) [1-[4-(decahydroquinoline-1-sulfonyl)phenyl]-3-(pyridin-3-ylmethyl)urea] yielded a pIC50 (NAMPT) of 7.96 and a pIC50 (A2780 cells; [1]) of 7.85.
Work on `O=C(NCc1cccnc1)Nc1ccc(S(=O)(=O)N(Cc2ccccc2)Cc2ccccc2)cc1` [1-[4-(dibenzylsulfamoyl)phenyl]-3-(pyridin-3-ylmethyl)urea] yielded a pIC50 (NAMPT) of 9.10 and a pIC50 (A2780 cells; [1]) of 9.52.
For `O=C(NCc1cccnc1)Nc1ccc(S(=O)(=O)c2cncc3ccccc23)cc1` [1-[4-(isoquinoline-4-sulfonyl)phenyl]-3-(pyridin-3-ylmethyl)urea], the pIC50 (NAMPT) was 8.85 and the pIC50 (A2780 cells; [1]) was 8.08.
`O=C(NCc1cccnc1)Nc1ccc(S(=O)(=O)c2cccc3c2Oc2ccccc2S3)cc1` [1-[4-(phenoxathiine-4-sulfonyl)phenyl]-3-(pyridin-3-ylmethyl)urea] showed a pIC50 (NAMPT) of 8.54 and a pIC50 (A2780 cells; [1]) of 8.74.
In the case of `O=C(NCc1cccnc1)Nc1ccc(S(=O)(=O)N2CCNCC2)cc1` [1-[4-(piperazine-1-sulfonyl)phenyl]-3-(pyridin-3-ylmethyl)urea], the pIC50 (NAMPT) was 7.31 and the pIC50 (A2780 cells; [1]) was under 5.70.
For `O=C(NCc1cccnc1)Nc1ccc(S(=O)(=O)c2cccc(C(=O)N3CCOCC3)c2)cc1` [1-[4-({3-[(morpholin-4-yl)carbonyl]benzene}sulfonyl)phenyl]-3-(pyridin-3-ylmethyl)urea], the pIC50 (NAMPT) was 8.30 and the pIC50 (A2780 cells; [1]) was 6.00 to 7.00.
For `O=C(NCc1cccnc1)Nc1ccc(S(=O)(=O)c2ccccc2)nc1` [1-[6-(benzenesulfonyl)pyridin-3-yl]-3-(pyridin-3-ylmethyl)urea], the pIC50 (NAMPT) was 7.82 and the pIC50 (A2780 cells; [1]) was 5.63.
In the case of `O=C(NCc1ccc(F)c(F)c1)Nc1ccc(S(=O)(=O)N2CCCCC2)cc1` [1-[(3,4-difluorophenyl)methyl]-3-[4-(piperidine-1-sulfonyl)phenyl]urea], the pIC50 (NAMPT) was 7.04 and the pIC50 (A2780 cells; [1]) was 4.54.
Work on `Nc1ccc(CNC(=O)Nc2ccc(S(=O)(=O)c3ccc(F)cc3)cc2)cn1` [1-[(6-aminopyridin-3-yl)methyl]-3-{4-[(4-fluorobenzene)sulfonyl]phenyl}urea] yielded a pIC50 (NAMPT) of 8.70 and a pIC50 (A2780 cells; [1]) of 7.37.
With `O=C(NCc1cccnc1)Nc1ccc(S(=O)(=O)c2cccnc2N2CCOCC2)cc1` [1-{4-[2-(morpholin-4-yl)pyridine-3-sulfonyl]phenyl}-3-(pyridin-3-ylmethyl)urea] the pIC50 (NAMPT) was 7.80 and the pIC50 (A2780 cells; [1]) was 6.00 to 7.00.
Work on `O=C(NCc1cccnc1)Nc1ccc(S(=O)(=O)N2CCC(N3C(=O)Cc4ccccc43)CC2)cc1` [1-{4-[4-(2-oxo-2,3-dihydro-1H-indol-1-yl)piperidine-1-sulfonyl]phenyl}-3-(pyridin-3-ylmethyl)urea] yielded a pIC50 (NAMPT) of 8.52 and a pIC50 (A2780 cells; Homo sapiens, A2780, 72 h) of 7.24.
Compound `O=C(NCc1cccnc1)Nc1ccc(S(=O)(=O)N2CCN(C(=O)Cc3ccccc3)CC2)cc1` [1-{4-[4-(2-phenylacetyl)piperazine-1-sulfonyl]phenyl}-3-(pyridin-3-ylmethyl)urea] has a pIC50 (NAMPT) of 8.52 and a pIC50 (A2780 cells; [1]) of 6.03.
`O=C(NCc1cccnc1)Nc1ccc(S(=O)(=O)N2CCC(N3CCCCCC3)CC2)cc1` [1-{4-[4-(azepan-1-yl)piperidine-1-sulfonyl]phenyl}-3-(pyridin-3-ylmethyl)urea] gave a pIC50 (NAMPT) of 8.30 and a pIC50 (A2780 cells; [1]) of 8.22.
`O=C(NCc1cccnc1)Nc1ccc(S(=O)(=O)N2CCC(N3CCCCC3)CC2)cc1` [1-{4-[4-(piperidin-1-yl)piperidine-1-sulfonyl]phenyl}-3-(pyridin-3-ylmethyl)urea] was tested, and the pIC50 (NAMPT) was 8.15 and the pIC50 (A2780 cells; [1]) was 7.89.
`O=C(NCc1cccnc1)Nc1ccc(S(=O)(=O)c2ccc(N3CCOCC3)nc2)cc1` [1-{4-[6-(morpholin-4-yl)pyridine-3-sulfonyl]phenyl}-3-(pyridin-3-ylmethyl)urea] was tested, and the pIC50 (NAMPT) was 8.44 and the pIC50 (A2780 cells; [1]) was 7.52.
Work on `O=C(NCc1cccnc1)Nc1ccc(S(=O)(=O)NC2(c3ccccc3)CCCC2)cc1` [1-{4-[(1-phenylcyclopentyl)sulfamoyl]phenyl}-3-(pyridin-3-ylmethyl)urea] yielded a pIC50 (NAMPT) of 7.54 and a pIC50 (A2780 cells; [1]) of 6.74.
`O=C(NCc1cccnc1)Nc1ccc(S(=O)(=O)N2CC[C@@]3(C2)OC(=O)c2ccccc23)cc1` [1-{4-[(1R)-3-oxo-3H-spiro[2-benzofuran-1,3′-pyrrolidine]-1′-ylsulfonyl]phenyl}-3-(pyridin-3-ylmethyl)urea] gave a pIC50 (NAMPT) of 8.30 and a pIC50 (A2780 cells; [1]) of 7.39.
`O=C(NCc1cccnc1)Nc1ccc(S(=O)(=O)c2ccccc2Oc2ccccc2)cc1` [1-{4-[(2-phenoxybenzene)sulfonyl]phenyl}-3-(pyridin-3-ylmethyl)urea] showed a pIC50 (NAMPT) of 8.70 and a pIC50 (A2780 cells; [1]) of 8.10.
With `O=C(NCc1cccnc1)Nc1ccc(S(=O)(=O)Nc2ccccc2-c2ccccc2)cc1` [1-{4-[(2-phenylphenyl)sulfamoyl]phenyl}-3-(pyridin-3-ylmethyl)urea] the pIC50 (NAMPT) was 8.52 and the pIC50 (A2780 cells; [1]) was 7.33.
Work on `O=C(NCc1cccnc1)Nc1ccc(S(=O)(=O)N2CCCC[C@@H]2CN2CCOCC2)cc1` [1-{4-[(2R)-2-(morpholin-4-ylmethyl)piperidine-1-sulfonyl]phenyl}-3-(pyridin-3-ylmethyl)urea] yielded a pIC50 (NAMPT) of 7.29 and a pIC50 (A2780 cells; [1]) of 7.09.
